Legend:
Format in all cases: in vivo
[1] = system: barnyardgrass (Echinochloa crus-galli); test: Test A preemergence soil spray, visual injury rating 0-100; settings: 10 days
Outline: (§1)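 Compounds formulated in a non-phytotoxic solvent with surfactant are sprayed onto soil of freshly planted loam-sand pots ahead of emergence, or onto emerged plants 2-10 cm tall. After a 10-day greenhouse period, each species is scored visually for injury against untreated controls.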

[2] = system: blackgrass (Alopecurus myosuroides); test: as above; settings: 10 days
Outline: as §1

corn (Zea mays) [3] = test: as above; settings: 10 days
Outline: as §1

[4] = system: green foxtail (Setaria viridis); test: as above; settings: 10 days
Outline: as §1

kochia (Bassia scoparia) [5] = test: as above; settings: 10 days
Outline: as §1

[6] = system: oat, wild (wild oat, Avena fatua); test: as above; settings: 10 days
Outline: as §1

[7] = system: palmer (palmer amaranth, palmer pigweed, Amaranthus palmeri); test: as above; settings: 10 days
Outline: as §1

[8] = system: ragweed (common ragweed, Ambrosia artemisiifolia); test: as above; settings: 10 days
Outline: as §1

[9] = system: ryegrass, Italian (italian ryegrass, Lolium multiflorum); test: as above; settings: 10 days
Outline: as §1

soybean (Glycine max) [10] = test: as above; settings: 10 days
Outline: as §1

[11] = system: wheat (Triticum aestivum); test: as above; settings: 10 days
Outline: as §1

[12] = system: barnyardgrass (Echinochloa crus-galli); test: Test A postemergence application, visual injury rating 0-100
Outline: as §1

[13] = system: blackgrass (Alopecurus myosuroides); test: as above
Outline: as §1

corn (Zea mays) [14] = test: as above
Outline: as §1

[15] = system: galium (catchweed bedstraw, Galium aparine); test: as above
Outline: as §1

[16] = system: green foxtail (Setaria viridis); test: as above
Outline: as §1

[17] = system: horseweed (Erigeron canadensis); test: as above
Outline: as §1

kochia (Bassia scoparia) [18] = test: as above
Outline: as §1

[19] = system: oat, wild (wild oat, Avena fatua); test: as above
Outline: as §1

[20] = system: palmer (palmer amaranth, palmer pigweed, Amaranthus palmeri); test: as above
Outline: as §1

[21] = system: ragweed (common ragweed, Ambrosia artemisiifolia); test: as above
Outline: as §1

[22] = system: ryegrass, Italian (italian ryegrass, Lolium multiflorum); test: as above
Outline: as §1

soybean (Glycine max) [23] = test: as above
Outline: as §1

[24] = system: wheat (Triticum aestivum); test: as above
Outline: as §1

[25] = system: barnyardgrass (Echinochloa crusgalli); test: Test B flooded paddy test, visual plant response rating 0-100; settings: 250 g ai/ha, Flood, applied to paddy water, evaluated after 13 days
Outline: (§2)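 Compounds applied to standing paddy water (3 cm above soil, maintained for the test duration) on 2-leaf-stage plants; visual rating vs controls at 13 days, greenhouse.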

[26] = system: ducksalad (Heteranthera limosa); test: as above; settings: 250 g ai/ha, Flood, applied to paddy water, evaluated after 13 days
Outline: as §2

rice (Oryza sativa) = test: as above; settings: 250 g ai/ha, Flood, applied to paddy water, evaluated after 13 days
Outline: as §2

[27] = system: sedge, umbrella (small-flower umbrella sedge, Cyperus difformis); test: as above; settings: 250 g ai/ha, Flood, applied to paddy water, evaluated after 13 days
Outline: as §2

[28] = 62 g ai/ha, 0 = no effect, 100 = complete control
[29] = 62 g ai/ha, postemergence, 10 days, 0 = no effect, 100 = complete control
[30] = Postemergence, 16 g ai/ha, greenhouse 10 days, 0 no effect, 100 complete control

For `CC1(C(=O)NC2CC=C(C(=O)O)C2)CN(c2cc(F)cc(F)c2)C(=O)O1` (stereo not shown) [Compound 94], the “Barnyardgrass plant response rating” value ([1]; 16 g ai/ha, 0 to 100 scale) was 40, the “Barnyardgrass plant response rating (0-100)” value [1, 28] was 100 and the “Blackgrass plant response rating” value ([2]; 16 g ai/ha, 0 to 100 scale) was 30. For the same molecule, the “Blackgrass plant response rating (0-100)” value [2, 28] was 60, the “Corn plant response rating” value (corn (Zea mays) [3]; 16 g ai/ha, 0 to 100 scale) was 40 and the “Corn plant response rating (0-100)” value (corn (Zea mays) [3]; [28]) was 80. The “Foxtail, Green plant response rating” value ([4]; 16 g ai/ha, 0 to 100 scale) was 10, the “Foxtail, Green plant response rating (0-100)” value [4, 28] was 90 and the “Kochia plant response rating” value (kochia (Bassia scoparia) [5]; 16 g ai/ha, 0 to 100 scale) was 0. For the same molecule, the “Kochia plant response rating (0-100)” value (kochia (Bassia scoparia) [5]; [28]) was 90, the “Oat, Wild plant response rating” value ([6]; 16 g ai/ha, 0 to 100 scale) was 10 and the “Oat, Wild plant response rating (0-100)” value [6, 28] was 50. The “Pigweed, Palmer plant response rating” value ([7]; 16 g ai/ha, 0 to 100 scale) was 20, the “Pigweed, Palmer plant response rating (0-100)” value [7, 28] was 60 and the “Ragweed plant response rating” value ([8]; 16 g ai/ha, 0 to 100 scale) was 20. The “Ragweed plant response rating (0-100)” value [8, 28] was 40, the “Ryegrass, Italian plant response rating” value ([9]; 16 g ai/ha, 0 to 100 scale) was 60 and the “Ryegrass, Italian plant response rating (0-100)” value [9, 28] was 70. The “Soybean plant response rating” value (soybean (Glycine max) [10]; 16 g ai/ha, 0 to 100 scale) was 10, the “Soybean plant response rating (0-100)” value (soybean (Glycine max) [10]; [28]) was 30 and the “Wheat plant response rating” value ([11]; 16 g ai/ha, 0 to 100 scale) was 60. The “Wheat plant response rating (0-100)” value [11, 28] was 90, the “Barnyardgrass plant response rating (0-100)” value [12, 29] was 100 and the “Barnyardgrass plant response rating (0 to 100 scale)” value [12, 30] was 100. The “Blackgrass plant response rating (0-100)” value [13, 29] was 90, the “Blackgrass plant response rating (0 to 100 scale)” value [13, 30] was 80 and the “Corn plant response rating (0-100)” value (corn (Zea mays) [14]; [29]) was 100. The “Corn plant response rating (0 to 100 scale)” value (corn (Zea mays) [14]; [30]) was 100, the “Galium plant response rating (0-100)” value [15, 29] was 90 and the “Galium plant response rating (0 to 100 scale)” value [15, 30] was 70. For the same molecule, the “Foxtail, Green plant response rating (0-100)” value [16, 29] was 90, the “Foxtail, Green plant response rating (0 to 100 scale)” value [16, 30] was 60 and the “Horseweed plant response rating (0-100)” value [17, 29] was 60. For the same molecule, the “Horseweed plant response rating (0 to 100 scale)” value [17, 30] was 20, the “Kochia plant response rating (0-100)” value (kochia (Bassia scoparia) [18]; [29]) was 90 and the “Kochia plant response rating (0 to 100 scale)” value (kochia (Bassia scoparia) [18]; [30]) was 80. For the same molecule, the “Oat, Wild plant response rating (0-100)” value [19, 29] was 90, the “Oat, Wild plant response rating (0 to 100 scale)” value [19, 30] was 40 and the “Pigweed, Palmer plant response rating (0-100)” value [20, 29] was 90. The “Pigweed, Palmer plant response rating (0 to 100 scale)” value [20, 30] was 50, the “Ragweed plant response rating (0-100)” value [21, 29] was 50 and the “Ragweed plant response rating (0 to 100 scale)” value [21, 30] was 50. The “Ryegrass, Italian plant response rating (0-100)” value [22, 29] was 90, the “Ryegrass, Italian plant response rating (0 to 100 scale)” value [22, 30] was 70 and the “Soybean plant response rating (0-100)” value (soybean (Glycine max) [23]; [29]) was 70. For the same molecule, the “Soybean plant response rating (0 to 100 scale)” value (soybean (Glycine max) [23]; [30]) was 60, the “Wheat plant response rating (0-100)” value [24, 29] was 90 and the “Wheat plant response rating (0 to 100 scale)” value [24, 30] was 60. For the same molecule, the “Plant response rating, Barnyardgrass (0 to 100 scale, 0 is no effect and 100 is complete control)” value [25] was 95, the “Plant response rating, Ducksalad (0 to 100 scale, 0 is no effect and 100 is complete control)” value [26] was 95 and the “Plant response rating, Rice (0 to 100 scale, 0 is no effect and 100 is complete control)” value (rice (Oryza sativa)) was 75. The “Plant response rating, Sedge, Umbrella (0 to 100 scale, 0 is no effect and 100 is complete control)” value [27] was 95.

From patent US20260285850A1, “SUBSTITUTED OXAZOLIDINONES AND IMIDAZOLINONES AS HERBICIDES” (FMC CORPORATION, priority 2023, published 2026)
